Measured values taken from patent publication US20100168085A1, “Dopamine and agonists and antagonists thereof for modulation of suppressive activity of CD4+CD25+ regulatory T cells” (YESA RESEARCH AND DEVELOPMENT CO. LTD. at the Weizmann …, priority 2003, published 2010).

Legend:
[1] = tested on: suppressive activity of CD4+CD25+ regulatory T cells (Treg) on Teff proliferation; assay: Inhibition assay (co-culturing of Teff with Treg), [3H]-thymidine incorporation; format: cell-based, mouse; conditions: for Inhibitory effect on Treg activity: freshly isolated (nonactivated) Treg; for Effect on Treg suppressive activity: activated Treg
Protocol: (xvi) Activation of CD4^+CD25^+ regulatory T cells. Purified regulatory T cells (Treg; 0.5×10^6 cells/mL) were activated in RPMI medium supplemented with L-glutamine (2 mM), 2-mercaptoethanol (5×10^−5 M), sodium pyruvate (1 mM), penicillin (100 IU/mL), streptomycin (100 μg/mL), nonessential amino acids (1 mL/100 mL), and autologous serum 2% (vol/vol) in the presence of mrIL-2 (5 ng/mL) and soluble anti-CD3 antibodies (1 ng/mL). Irradiated (2500 rad) splenocytes (1.5×10^6 cells/mL) were added to the culture. Cells were activated for 24 or 96 h. In some of the 96-h experiments, fresh dopamine was added to the culture every 24 h during activation.
(xvii) Inhibition assay (co-culturing of Teff with Treg). Naïve effector T cells (Teff; 50×10^3 cells/well) were co-cultured with decreasing numbers of activated Treg for 72 h in 96-well flat-bottomed plates in the presence of irradiated splenocytes (10^6/mL) supplemented with anti-CD3 antibodies. [^3H]-thymidine (1 μCi) was added for the last 16 h of culture. After the cells were harvested, their [^3H]-thymidine content was analyzed by the use of […].
In this experiment, we examined whether dopamine acts on Treg and alters their suppressive effect on Teff. Suppression of proliferation of Teff, assayed by [^3H]thymidine incorporation, was used as a measure of suppressive effect of Treg (Thornton and Shevach, 1998).
Shevach, 1998, 2000). Inhibition of Treg proliferation, assayed by [^3H]thymidine incorporation, can therefore be taken as a measure of the suppressive effect. We examined the ability of major neurotransmitters and neuropeptides (dopamine, norepinephrine, substance P, and serotonin) to alleviate the Treg-induced suppression of Teff in vitro. Each compound was tested at several concentrations. […] After incubating the activated Treg for 2 h with a neurotransmitter or a neuropeptide, we washed the cells and then co-cultured them with Teff.

CTLA-4 on Treg = assay: FACS analysis of CTLA-4 expression; format: cell-based, mouse; conditions: Treg activated 24 h, 2 h with compound, stained 24 h later
Protocol: (vii) FACS analysis of CTLA-4-expressing CD4^+ T cells. Cells were immunostained according to the manufacturer's instructions, resuspended in 0.4 mL of 1% paraformaldehyde, and analyzed by FACSort (Becton-Dickinson), with 10,000 events scored. […] The cells were scored from a region defined according to physical parameters that indicate the size (forward scatter) and granularity (side scatter) of lymphocytes. CD4^+ lymphocytes were then gated for analysis of CTLA-4 expression.
To gain further insight into the mechanism whereby dopamine affects Treg activity we examined CTLA-4, a molecule characteristic of Treg (Im et al., 2001).

[2] = tested on: IL-2 production by Treg and Teff; conditions: media conditioned 48 h, without mrIL-2
Protocol: (x) Enzyme-linked immunosorbent assay. Treg or Teff (0.5×10^6 cells/ml) were cultured for 48 h in the presence of anti-CD3 and anti-CD28. After 48 h the cells were centrifuged and their supernatants were collected and sampled. Concentrations of IL-2 in the samples were determined by the use of sandwich enzyme-linked immunosorbent assay (ELISA) kits (R&D Systems, Minneapolis, Minn.). For detection of secreted IL-10 cells were centrifuged every 24 h and replaced with a fresh medium. Supernatants obtained from cells after 24, 48 and 72 h in culture were subjected to ELISA kit (Diaclone Research, Fleming, France). The plates were developed using a 3,3′,5,5′-tetramethyl-benzidine liquid substrate system (Sigma, St. Louis, Mo.). The reaction was stopped by adding 1M H3PO4. Results for each experiment were calculated as the amount of secreted cytokine per 1 ml of sample, after subtraction of the background levels of the medium.
It should be noted that activation of both T cell populations was carried out in the absence of mrIL-2.

[3] = tested on: CD44 expression in Treg and Teff
Protocol: (§1) To verify that the effect of dopamine on adhesion of Treg is exerted through the ERK1/2 pathway, we incubated Treg with the ERK1/2 signaling pathway inhibitor PD98059 before carrying out the adhesion assay. […] Since interaction of T cells with CSPG is mediated in part by the CD44 receptor (Henke et al., 1996), and in light of the known dependence of CD44 expression on the ERK signaling pathway, it was conceivable that dopamine might affect the expression of CD44 in Treg.

[4] = tested on: LFA-1, I-CAM, and V-CAM in Treg; conditions: data not shown
Protocol: as §1

[5] = tested on: suppressive activity of Treg in vivo (neuronal survival); conditions: Treg incubated with dopamine (10^−5 M, 2 h) prior to systemic injection
From the text: To unequivocally show the direct effect of dopamine on Treg activity in vivo, we examined whether direct exposure of Treg to dopamine can reduce their suppressive activity in a model of neuronal survival.

solid tumor cells M2R = conditions: Treg 2×10^6 cells exposed to dopamine 10^−5 M
From the text: In another experiment, mice (n=10) were inoculated with solid tumor cells M2R, and received an immediate injection of Treg (2×10^6 cells) with and without exposure to dopamine (10^−5M). Control animals (n=10) received an injection of vehicle (PBS) following cancer cells inoculation.

[6] = tested on: CXCR-4 and CCR-8 mRNA in Treg; conditions: data not shown
[7] = Teff incubated 2 h with 10^−5 M

NCCc1ccc(O)c(O)c1 [dopamine, 3,4-dihydroxyphenethylamine]
Proliferation of Teff co-cultured with activated Treg incubated with compound versus Treg not incubated ([1]; 10^−5 M, 2 h, Treg activated 24 h with anti-CD3 and IL-2): more than twofold higher
Inhibitory effect on Treg activity ([1]; 10^−5 and 10^−7 M): reproduced
Effect on Treg suppressive activity ([1]; 10^−7 M, 2 h): significant effect
Effect on Treg suppressive activity ([1]; 10^−9 M, 2 h): no significant effect
Inhibitory effect on Treg activity ([1]; 10^−9 M): slight and not statistically significant
Direct effect on Teff proliferation [1, 7]: did not differ
Susceptibility of Teff to Treg suppression [1, 7]: did not alter the susceptibility of Teff to Treg suppression
Teff proliferation with treated versus untreated activated Treg ([1]; Treg activated 96 h, 10^−5 M for 2 h at end of activation): significantly higher
Extent of effect on Treg suppressive activity ([1]; any of the concentrations tested): only partial
CTLA-4 expression on Treg (CTLA-4 on Treg): slightly but consistently decreased
IL-2 level secreted by Teff [2]: not affected
Production of IL-2 by Treg [2]: not detected
CD44 immunoreactivity in Treg ([3]; activated 24 h, 2 h with dopamine): decreased CD44 immunoreactivity
CD44 expression in Teff ([3]; after incubation with dopamine): not affected
LFA-1, I-CAM, V-CAM in Treg [4]: did not show any dopamine-related changes
Suppressive effect of injected Treg on neuronal survival [5]: abolished their suppressive effect
Tumor development in mice injected with Treg exposed to dopamine (solid tumor cells M2R): did not differ from control mice
Expression of mRNA for CXCR-4 and CCR-8 in Treg [6]: did not change
